# Laboratory results: US8163805B2, “Small molecule antagonists of Bcl-2 family proteins” (The Regents of the University of Michigan, priority 2001, dated 2012)
# “And” between values parts separate entries of the source, which are not always exact repeats. Equal entries are not always repeated. Where two headings read alike, the source gives them in different places.
# Tests used:
# Bcl-XL [1] = target: T1, Bcl-XL (Homo sapiens, UniProt Q07817, DEL45-84); assay: FP binding assay, Flu-Bid 21-residue peptide and Bcl-XL (FIG. 5, 46)
# T1 construct: His-tag (N); made in house
# Bcl-XL [2] = target: T1, Bcl-XL; assay: 15N HSQC NMR binding to Bcl-XL
# MDA-MB-231 cells = assay: 5 day MTT cell growth assay, MDA-MB-231; format: cell-based, human; settings: breast cancer cell lines with high levels of Bcl-XL, FIG. 12
# Method: For example, the ability of gossypol compounds to inhibit MDA-MB-231 cell growth was tested in a 5 day MTT assay.
# Cells were seeded in 24 or 96-well-plates and gossypol compounds were prepared at 2-10 fold dilutions in suitable medium. Inhibition of cell viability was determined by treating the cells with the gossypol compounds for 24 hrs. […] Inhibition of cell growth was determined by treating cells with gossypol compounds for 3-6 days. […] In some embodiments, MTT assays are used to determine cell inhibition.
# Absorbance at 540 nm is used to measure the amount of formazan product.
# UM-SCC-6 [3] = assay: 6-day MTT cell growth, UM-SCC-6; format: cell-based, human; settings: read-out: IC50, inhibition of cell growth
# Method: (§1) UM-SCC and human fibroblast cell lines were continuously exposed to varying concentrations of (−)-gossypol in 6-day MTT cell survival assays. Control wells contained media (DMEM) with vehicle alone. For each data point n=5.
# (§2) Ten squamous cell carcinoma cell lines established at the University of Michigan (UM-SCC) and three human fibroblast lines were grown in Dulbecco's modified Eagle's medium (DMEM) supplemented with 10% fetal bovine serum. UM-SCC cell lines originated from the larynx (n=2; UM-SCC-12, -23), oral cavity/oropharynx (n=5; UM-SCC-1, -6, -14A, -74B, -81B), hypopharynx (n=1; UM-SCC-22A) and metastases from laryngeal cancers (n=2; UM-SCC-17B, -25). Human fibroblast cell lines originated from surgical specimens (fibroblast cell lines 2 and 3) and neonatal foreskin samples (fibroblast cell line 1).
# (§3) Logarithmically growing cell lines were cultured, washed, counted, and plated at 5,000-15,000 cells per well in duplicate wells of 96-well plates and incubated in DMEM overnight. […] The MTT assay measures cell survival based on mitochondrial conversion of MTT from a soluble tetrazolium salt into an insoluble colored formazan precipitate, which is dissolved in dimethyl sulfoxide and quantitated by spectrophotometry. […] Percent absorbance relative to control was plotted as a linear function of drug concentration.
# UM-SCC-22A = assay: 6-day MTT cell growth, UM-SCC-22A; format: cell-based, human; settings: read-out: IC50, inhibition of cell growth
# Method: as §1, §2, §3
# UM-SCC-14A [4] = assay: 6-day MTT cell growth, UM-SCC-14A; format: cell-based, human; settings: read-out: IC50, inhibition of cell growth
# Method: as §1, §2, §3
# UM-SCC-74B = assay: 6-day MTT cell growth, UM-SCC-74B; format: cell-based, human; settings: read-out: IC50, inhibition of cell growth
# Method: as §1, §2, §3
# [5] = system: Fib-2 (fibroblast cell line 2); assay: 6-day MTT cell growth, Fib-2; format: cell-based, human; settings: read-out: IC50, inhibition of cell growth
# Method: as §1, §2, §3
# UM-SCC-1 [6] = assay: Trypan blue exclusion cell death, UM-SCC-1; format: cell-based, human; settings: 10 μM, 48 hour
# Method: (§4) Cells were seeded in 24 or 96-well-plates and gossypol compounds were prepared at 2-10 fold dilutions in suitable medium. […] Cell viability was then determined by the trypan-blue assays. Inhibition of cell growth was determined by treating cells with gossypol compounds for 3-6 days. Cell inhibition was determined using XTT. In some embodiments, MTT assays are used to determine cell inhibition.
# UM-SCC-6 [7] = assay: Trypan blue exclusion cell death, UM-SCC-6; format: cell-based, human; settings: 10 μM, 48 hour
# Method: as §4
# UM-SCC-12 = assay: Trypan blue exclusion cell death, UM-SCC-12; format: cell-based, human; settings: 10 μM, 48 hour
# Method: as §4
# UM-SCC-14A [8] = assay: Trypan blue exclusion cell death, UM-SCC-14A; format: cell-based, human; settings: 10 μM, 48 hour
# Method: as §4
# UM-SCC-1 [9] = assay: Flow cytometric TUNEL apoptosis assay, UM-SCC-1; format: cell-based, human; settings: 10 μM, 48-hour
# Method: (§5) Briefly, FIGS. 24A-24C show apoptosis after (−)-gossypol as measured by a fluorescent flow cytometric TUNEL assay. Open peaks represent BrdU labeling of untreated cells. Shaded peaks indicate BrdU labeling of cell populations following 48-hour treatment with 10 μM (−)-gossypol; FIG. 24A, UM-SCC-cell lines with wild type p53; FIG. 24B, UM-SCC-cell lines with mutant p53; and FIG. 24C normal fibroblast cells.
# (§6) Apoptosis of UM-SCC cell lines following (−)-gossypol treatment was quantitatively detected by enzymatic labeling of DNA strand breaks using terminal deoxynucleotidyltransferase (TdT) and Alexa Fluor-BrdUTP, known as the TdT-UTP nick end-labeling (TUNEL) assay by flow cytometry. Cells were exposed to (−)-gossypol for 48 hours, harvested, fixed and TUNEL stained according to the manufacturer's protocol (Molecular Probes Inc., Eugene, Oreg.). Ten thousand cells were analyzed per sample using excitation of Alexa Fluor at 488 nm. Apoptotic index (AI) was defined as percent of apoptotic cells in the treatment population minus that in the vehicle control population.
# UM-SCC-6 [10] = assay: Flow cytometric TUNEL apoptosis assay, UM-SCC-6; format: cell-based, human; settings: 10 μM, 48-hour
# Method: as §5, §6
# DU145 = assay: MTT-based 5-day cell proliferation, DU145; settings: DU145, FIG. 42
# Excerpt: (§7) The present invention is not limited to any mechanism. Indeed, a mechanistic understanding of the invention is unnecessary to practice (make and use) the present compositions and methods.
# [11] = system: normal human fibroblast WI-38 cells; assay: MTT-based 5-day cell proliferation, WI-38; settings: WI-38, FIG. 42
# Excerpt: as §7
# [12] = system: PC-3 prostate cancer cell line; assay: Annexin V-FITC/PI apoptosis with TXT or CDDP, PC-3; format: cell-based, human; settings: PC-3, 48 hrs
# Excerpt: as §7
# [13] = system: human breast cancer MDA-MB-231 (2LMP) xenograft; settings: Table 8
# [14] = system: androgen independent prostate cancer PC-3 xenograft; assay: PC-3 xenograft, (−)-gossypol alone and with docetaxel (Example 22); settings: for complete tumor regression, number of mice: combination of (−)-gossypol with docetaxel
# [15] = (−)-gossypol 7.5 mg/kg p.o. daily 4 weeks, docetaxel 7.5 mg/kg once a week 3 weeks
# T1 sequence (Q07817 with tags, fused parts or gaps DEL45-84 limits assumed): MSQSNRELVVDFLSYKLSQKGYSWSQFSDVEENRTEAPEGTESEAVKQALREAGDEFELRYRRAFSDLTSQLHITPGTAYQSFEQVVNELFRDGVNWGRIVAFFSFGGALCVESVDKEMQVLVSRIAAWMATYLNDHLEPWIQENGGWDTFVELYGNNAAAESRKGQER
smiles,measurement,setting,value
Cc1cc2c(C(C)C)c(O)c(O)c(C=O)c2c(O)c1-c1c(C)cc2c(C(C)C)c(O)c(O)c(C=O)c2c1O [(−)-gossypol],inhibition of binding between Bad BH3 peptide and Bcl-XL,Bcl-XL [1],directly inhibit binding between Bad BH3 peptide and Bcl-XL
same,binding to Bcl-XL by NMR,Bcl-XL [2],bind to the BH3 binding groove in Bcl-XL
same,"potency in inhibition of cell growth relative to (+)-gossypol, first statement",MDA-MB-231 cells,2 times
same,"potency in inhibition of cell growth relative to (+)-gossypol, second statement",MDA-MB-231 cells,5-10 times
same,IC50,UM-SCC-6 [3],11 µM
same,IC50,UM-SCC-22A,3 µM
same,IC50,UM-SCC-14A [4],11 µM
same,IC50,UM-SCC-74B,4 µM
same,IC50,[5],20 µM
same,surviving (trypan blue excluding) fraction relative to untreated controls,UM-SCC-1 [6],20%
same,surviving (trypan blue excluding) fraction relative to untreated controls,UM-SCC-6 [7],9%
same,surviving (trypan blue excluding) fraction relative to untreated controls,UM-SCC-12,14%
same,surviving (trypan blue excluding) fraction relative to untreated controls,UM-SCC-14A [8],16%
same,apoptotic index (AI),UM-SCC-1 [9],90.1%
same,apoptotic index (AI),UM-SCC-6 [10],80.3%
same,cytotoxicity,DU145,very limited effect
same,cytotoxicity,[11],very limited effect
same,effect on activity of docetaxel and cisplatin,[12],enhanced the activities of docetaxel and cisplatin (CDDP) in inhibiting cell growth and inducing apoptosis
same,tumor growth inhibition,"[13]; (−)-gossypol 7.5 mg/kg p.o. in combination with docetaxel 7.5 mg/kg i.v., p < 0.01",there was more than 90% tumor
same,tumor growth inhibition,"[13]; (−)-gossypol 30 mg/kg p.o. q day for 4 weeks, alone","30 mg/kg of G-, there was 40%"
same,anti-tumor effect,[13]; (−)-gossypol 15 or 7.5 mg/kg p.o. alone,did not achieve significant anti-
same,tumor growth inhibition,"[13]; (−)-gossypol at any of the three doses (7.5, 15, 30 mg/kg p.o.) in combination with docetaxel 7.5 mg/kg i.v.",all achieved significant tumor
same,"tumor regression, number of mice","[13]; (−)-gossypol in combination with docetaxel, 8 mice per group",There was tumor regression in 3 mice
same,inhibition of tumor growth by (−)-gossypol alone,"[13]; MDA-231 fat-pad xenografts, Balb/c nude mouse, 7.5, 15 or 30 mg/kg p.o. q day for 4 weeks, alone",There was dose-dependent
same,Complete tumor regression/Total,[14]; [15],2 out of 12 and 2/12
same,Percent regression,[14]; [15],17%
same,tumor growth inhibition compared with vehicle control,"[14]; Table 9, (−)-gossypol 15 mg/kg p.o. in combination with docetaxel 7.5 mg/kg i.v.",84% tumor growth inhibition as
same,tumor growth inhibition on day 42,"[14]; Table 9, PC-3 flank xenografts (~100 mm^3 at start), NCr-nu nude mouse, 15 mg/kg daily p.o., alone","growth inhibition (52% on day 42,"
same,"complete tumor regression, number of mice","[14]; Table 9, out of 5 mice",complete tumor regression in 3 out mice
same,tumor inhibition compared with vehicle control,"[14]; Table 10, (−)-gossypol in combination with docetaxel 7.5 mg/kg i.v.",at 7.5 mg/kg achieved 89.9% tumor
same,tumor growth inhibition on day 56 compared to vehicle controls,"[14]; Table 10, PC-3 flank xenografts (~120 mm^3 at start), NCr-nu nude mouse, daily p.o. for 28 days, alone (racemic 15 mg/kg)","antitumor activity (60% on day 56,"
same,"complete tumor regression, number of mice","[14]; Table 10, out of 8 mice",complete tumor regression in 5 out mice
